Test results from US20080138463A1, “Lactobacillus buchneri strain LN5689 and its use to improve aerobic stability of silage” (Pioneer Hi-Bred International, Inc., priority 2006, published 2008).

Assays:
[1] = pH of grass silage after ensiling; type: physicochemical, ryegrass; details: for pH: PVC silos
Experimental: Second cut ryegrass was harvested at PLNC. The grass was determined to have an approximate dry matter of 35%. Inoculation: Individual strains were supplied as fresh grown overnight culture. Cultures were adjusted to a standard concentration of 5.0×10^7 CFU/mL and applied using a syringe at a rate of 2.2 mL/kg of forage. The application rate for all strains was 1.1×10^5 CFU/g forage. Propionic acid (88%) was applied at a rate of 4.4 mL/kg fresh forage. PVC Silos: PVC silos were filled at a packing density of 0.288 kg DM/silo (100 kg DM/m^3); approximately 0.82-0.95 kg/silo. Silos were air infused for 24 hours on days 28 and 42, and opened after 50-60 days of ensiling.

[2] = Aerobic stability of grass silage (method of Honig); parameters: species or system ryegrass
Experimental: Second cut ryegrass was harvested at PLNC. The grass was determined to have an approximate dry matter of 35%.
Inoculation: Individual strains were supplied as fresh grown overnight culture. Cultures were adjusted to a standard concentration of 5.0×10^7 CFU/mL and applied using a syringe at a rate of 2.2 mL/kg of forage. The application rate for all strains was 1.1×10^5 CFU/g forage. Propionic acid (88%) was applied at a rate of 4.4 mL/kg fresh forage.
PVC Silos: PVC silos were filled at a packing density of 0.288 kg DM/silo (100 kg DM/m^3); approximately 0.82-0.95 kg/silo. Silos were air infused for 24 hours on days 28 and 42, and opened after 50-60 days of ensiling.
Aerobic Stability: The method of Honig (Proc. Of the Eurobac. Conf., P. Lingvall and S. Lindgren (ed.) (12-16 Aug. 1986) Swed. Univ. of Agric. Sci. Grass and Forage Report No. 3-1990. Pp. 76-81. Uppsala, Sweden.) was used for measuring aerobic stability (see Table 1). ROT is defined as the time, in hours, for the silage to heat 1.7° C. after exposure to air. Cumm_DD is the integral value of the area between the time ROT is attained and the end of the experiment. Aerobic dry matter loss (% dry matter) was determined relating the increase in temperature and the time to energy losses occurring in the silage.

[3] = average across replicate studies A, B, C

pH ([1]; replicate study A): 4.03 | pH ([1]; replicate study B): 4.17 | pH ([1]; replicate study C): 4.18 | pH Avg. [1, 3]: 4.13 | Improvement of aerobic stability over the control ([2]; LN5689 1.1×10^5 CFU/g forage, propionic acid (88%) 4.4 mL/kg): 96 h
SMILES: CCC(=O)O [Propionic Acid, Propionic acid]
Aerobic deterioration compared with control grass silages [2]: significantly less aerobic deterioration than the control | Aerobic Dry Matter Loss Avg. [2, 3]: 0.43 % dry matter | ROT Avg. [2, 3]: 127 h | Aerobic Dry Matter Loss ([2]; replicate study A): 0.29 % dry matter | ROT (time for the silage to heat 1.7° C. after exposure to air) ([2]; replicate study A): 137 h | Aerobic Dry Matter Loss ([2]; replicate study B): 0 % dry matter | ROT (time for the silage to heat 1.7° C. after exposure to air) ([2]; replicate study B): 160 h | Aerobic Dry Matter Loss ([2]; replicate study C): 1.01 % dry matter | ROT (time for the silage to heat 1.7° C. after exposure to air) ([2]; replicate study C): 86 h
